Laboratory results reported in patent US12187723B2 (BRISTOL-MYERS SQUIBB COMPANY, priority 2019, dated 2025).

Biological target: T1, human TLR7 (Homo sapiens, UniProt Q9NYK1)
T1 construct: host or cells: HEK-Blue cells
T1 sequence (Q9NYK1 27-1049): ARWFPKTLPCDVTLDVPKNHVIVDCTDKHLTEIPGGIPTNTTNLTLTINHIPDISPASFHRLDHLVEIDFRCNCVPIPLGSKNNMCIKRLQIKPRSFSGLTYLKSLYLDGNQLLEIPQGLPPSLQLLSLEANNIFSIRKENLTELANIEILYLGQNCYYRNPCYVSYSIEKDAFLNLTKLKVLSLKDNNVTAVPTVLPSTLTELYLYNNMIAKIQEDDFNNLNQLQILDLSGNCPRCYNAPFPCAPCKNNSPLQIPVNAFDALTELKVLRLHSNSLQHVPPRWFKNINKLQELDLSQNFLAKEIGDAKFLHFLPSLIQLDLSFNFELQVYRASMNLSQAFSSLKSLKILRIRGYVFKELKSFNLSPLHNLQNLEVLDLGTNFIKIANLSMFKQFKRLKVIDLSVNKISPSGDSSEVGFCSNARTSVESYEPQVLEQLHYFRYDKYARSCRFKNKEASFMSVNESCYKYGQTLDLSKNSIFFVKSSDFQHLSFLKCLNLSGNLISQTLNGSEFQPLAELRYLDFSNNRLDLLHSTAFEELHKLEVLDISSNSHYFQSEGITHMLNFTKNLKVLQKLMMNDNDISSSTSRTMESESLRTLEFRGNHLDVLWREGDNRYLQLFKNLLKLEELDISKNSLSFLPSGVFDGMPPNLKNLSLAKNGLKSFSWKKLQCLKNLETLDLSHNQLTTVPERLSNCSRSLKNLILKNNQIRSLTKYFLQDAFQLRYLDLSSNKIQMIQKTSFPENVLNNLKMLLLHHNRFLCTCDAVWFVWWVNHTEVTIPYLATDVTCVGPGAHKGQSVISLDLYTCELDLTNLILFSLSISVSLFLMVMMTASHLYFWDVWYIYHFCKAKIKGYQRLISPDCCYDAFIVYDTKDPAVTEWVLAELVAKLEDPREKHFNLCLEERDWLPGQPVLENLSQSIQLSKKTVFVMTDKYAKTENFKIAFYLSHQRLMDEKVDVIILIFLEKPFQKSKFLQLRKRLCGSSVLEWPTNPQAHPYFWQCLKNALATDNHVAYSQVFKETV
Assay: TLR7 inhibition reporter assay (HEK-Blue SEAP)
Type: cell-based
Conditions: HEK-Blue cells overexpressing human TLR7, gardiquimod 7.5 μM, 22 hour incubation
Summary of the method: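 Cells (15000/well for TLR7, 20,000 for TLR8) were treated with compounds over 0.05 nM-50 μM final. After 22 h at 37° C, 5% CO2, SEAP was measured with HEK-Blue Detection reagent; percent inhibition was taken as reduction of agonist-plus-DMSO signal relative to a known inhibitor.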

| SMILES | IC50 |
| --- | --- |
| Cc1c(-c2cc3[nH]c(=O)n(C4CCC(N5CC(F)C5)CC4)c3cc2C(C)C)cn2ncnc2c1C (stereo not drawn) [Example 279, 5-(7,8-dimethyl-[1,2,4]triazolo[1,5-a]pyridin-6-yl)-1-(4-(3-fluoroazetidin-1-yl)cyclohexyl)-6-isopropyl-1,3-dihydro-2H-benzo[d]imidazol-2-one] | 2.89 nM |
| Cc1c(-c2cc3[nH]c(=O)n(C4CCC(N5CC(F)C5)CC4)c3cc2C(C)C)cn2ncnc2c1C (stereo not drawn) [Example 280, 5-(7,8-dimethyl-[1,2,4]triazolo[1,5-a]pyridin-6-yl)-1-(4-(3-fluoroazetidin-1-yl)cyclohexyl)-6-isopropyl-1,3-dihydro-2H-benzo[d]imidazol-2-one] | 4.91 nM |
| COc1cc(-c2cc3[nH]c(=O)n(C4CCC(N5CC[C@H](F)C5)CC4)c3cc2C(C)C)cn2ncnc12 (stereo partly drawn) [Example 286, (S)-1-(4-(3-fluoropyrrolidin-1-yl)cyclohexyl)-6-isopropyl-5-(8-methoxy-[1,2,4]triazolo[1,5-a]pyridin-6-yl)-1,3-dihydro-2H-benzo[d]imidazol-2-one] | 0.7 nM |

Results, then the compound that gave them:

| IC50 | SMILES |
| --- | --- |
| 0.7 nM | COc1cc(-c2cc3[nH]c(=O)n(C4CCC(N5CCC(OC)C5)CC4)c3cc2C(C)C)cn2ncnc12 (stereo not drawn) [Example 284, 6-isopropyl-5-(8-methoxy-[1,2,4]triazolo[1,5-a]pyridin-6-yl)-1-(4-(3-methoxypyrrolidin-1-yl)cyclohexyl)-1,3-dihydro-2H-benzo[d]imidazol-2-one] |
| 0.66 nM | COc1cc(-c2cc3[nH]c(=O)n(C4CCC(N5CCC(OC)C5)CC4)c3cc2C(C)C)cn2ncnc12 (stereo not drawn) [Example 285, 6-isopropyl-5-(8-methoxy-[1,2,4]triazolo[1,5-a]pyridin-6-yl)-1-(4-(3-methoxypyrrolidin-1-yl)cyclohexyl)-1,3-dihydro-2H-benzo[d]imidazol-2-one] |
| 1.53 nM | COc1cc(-c2cc3[nH]c(=O)n(C4CCC(N5CC[C@H](F)C5)CC4)c3cc2C(C)C)cn2ncnc12 (stereo partly drawn) [Example 287, (S)-1-(4-(3-fluoropyrrolidin-1-yl)cyclohexyl)-6-isopropyl-5-(8-methoxy-[1,2,4]triazolo[1,5-a]pyridin-6-yl)-1,3-dihydro-2H-benzo[d]imidazol-2-one] |
